Assay results published in patent US10807952B2 (Achillion Pharmaceuticals, Inc., priority 2015, dated 2020).
pIC50: −log10 of the molar value.

Molecular target: Human Factor D (Homo sapiens (Human), UniProt P00746)
Test: Human Factor D assay (Z-L-Lys-SBzl / DTNB, absorbance at 405 nm)
Type: biochemical
Conditions: Table 3; Human Factor D 80 nM, assay of Example 13
Method: Human Factor D (purified from human serum, Complement Technology, Inc.) at 80 nM final concentration was incubated with test compound at various concentrations for 5 minutes at room temperature in 50 mM Tris, 1M NaCl, pH 7.5. A synthetic substrate Z-L-Lys-SBzl and DTNB (Ellman's reagent) were added to final concentrations of 100 μM each. […] IC50 values were calculated by nonlinear regression of complement Factor D reaction rates as a function of test compound concentration.

Sequence of Human Factor D (P00746 26-253): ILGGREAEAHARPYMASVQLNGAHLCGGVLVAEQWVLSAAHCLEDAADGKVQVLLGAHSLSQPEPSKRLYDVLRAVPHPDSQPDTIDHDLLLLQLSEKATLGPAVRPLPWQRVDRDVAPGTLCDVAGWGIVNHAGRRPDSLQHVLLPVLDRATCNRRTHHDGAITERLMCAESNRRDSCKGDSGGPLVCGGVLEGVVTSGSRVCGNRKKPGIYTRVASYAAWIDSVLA

| SMILES | pIC50 |
| --- | --- |
| CC(=O)c1cn(CC(=O)OC(C)(C)C)c2cc(-c3cccc(NC(=O)[C@@H]4C[C@@H](F)CN4C(=O)Cn4nc(C(N)=O)c5ccccc54)c3F)ccc12 [Compound 30, tert-butyl 2-(3-acetyl-6-(3-((2S,4R)-1-(2-(3-carbamoyl-1H-indazol-1-yl)acetyl)-4-fluoropyrrolidine-2-carboxamido)-2-fluorophenyl)-1H-indol-1-yl)acetate] | 5.00 to 6.00 |
| CC(=O)c1cn(CC(=O)O)c2cc(-c3cccc(NC(=O)[C@@H]4C[C@@H](F)CN4C(=O)Cn4nc(C(N)=O)c5ccccc54)c3F)ccc12 [Compound 31, 2-(3-acetyl-6-(3-((2S,4R)-1-(2-(3-carbamoyl-1H-indazol-1-yl)acetyl)-4-fluoropyrrolidine-2-carboxamido)-2-fluorophenyl)-1H-indol-1-yl)acetic acid] | 5.00 to 6.00 |
| N#Cc1n[nH]c2cc(-c3cccc(NC(=O)[C@@H]4C[C@@H](F)CN4C(=O)Cn4nc(C(N)=O)c5ccccc54)c3F)ccc12 [Compound 32, 1-(2-((2S,4R)-2-(3-(3-cyano-1H-indazol-6-yl)-2-fluorophenyl-carbamoyl)-4-fluoropyrrolidin-1-yl)-2-oxoethyl)-1H-indazole-3-carboxamide] | > 6.00 |
| NC(=O)c1nn(CC(=O)N2C[C@H](F)C[C@H]2C(=O)Nc2cccc(-c3ccccc3Cl)c2F)c2cc(C(F)(F)F)sc12 [Compound 33, 1-(2-((2S,4R)-2-(2′-chloro-2-fluorobiphenyl-3-ylcarbamoyl)-4-fluoropyrrolidin-1-yl)-2-oxoethyl)-5-(trifluoromethyl)-1H-thieno[3,2-c]pyrazole-3-carboxamide] | > 6.00 |
| NC(=O)c1ccc(Cl)c(-c2cccc(NC(=O)[C@@H]3C[C@@H](F)CN3C(=O)Cn3nc(C(N)=O)c4sc(C(F)(F)F)cc43)c2F)c1 [Compound 39, 1-(2-((2S,4R)-2-((5′-Carbamoyl-2′-chloro-2-fluoro-[1,1′-biphenyl]-3-yl)carbamoyl)-4-fluoropyrrolidin-1-yl)-2-oxoethyl)-5-(trifluoromethyl)-1H-thieno[3,2-c]pyrazole-3-carboxamide] | > 6.00 |
| NC(=O)c1nn(CC(=O)N2C[C@H](F)C[C@H]2C(=O)Nc2cccc(Br)n2)c2cc(S(F)(F)(F)(F)F)ccc12 [Compound 40, 1-(2-((2S,4R)-2-((6-Bromopyridin-2-yl)carbamoyl)-4-fluoropyrrolidin-1-yl)-2-oxoethyl)-6-(pentafluoro-λ^6-sulfanyl)-1H-indazole-3-carboxamide] | > 6.00 |
| O=C(Nc1cccc(-c2ccccc2Cl)c1F)[C@@H]1C[C@@H](F)CN1C(=O)Cc1cccc(Br)n1 [Compound 41, (2S,4R)-1-(2-(6-bromopyridin-2-yl)acetyl)-N-(2′-chloro-2-fluorobiphenyl-3-yl)-4-fluoropyrrolidine-2-carboxamide] | 5.00 to 6.00 |
| O=C(Nc1cccc(-c2ccccc2Cl)c1F)[C@@H]1C[C@@H](F)CN1C(=O)Cc1cccc(Cl)c1 [Compound 42] | > 6.00 |
| NC(=O)c1nn(CC(=O)N2C[C@H](F)C[C@H]2C(=O)Nc2cccc(-c3ccc4nc(F)[nH]c4c3Cl)c2F)c2ccccc12 [Compound 44, 1-(2-((2S,4R)-2-(3-(7-chloro-2-fluoro-1H-benzo[d]imidazol-6-yl)-2-fluorophenyl-carbamoyl)-4-fluoropyrrolidin-1-yl)-2-oxoethyl)-1H-indazole-3-carboxamide] | > 6.00 |
| NC(=O)c1nn(CC(=O)N2C[C@H](F)C[C@H]2C(=O)Nc2cccc(-c3ccccc3Cl)c2F)c2cc(S(F)(F)(F)(F)F)ccc12 [Compound 45] | > 6.00 |
| NC(=O)c1nn(CC(=O)N2C[C@H](F)C[C@H]2C(=O)Nc2cccc(C(=O)Nc3nc4cccc(Cl)c4[nH]3)c2F)c2ccccc12 [Compound 46] | > 6.00 |
| NC(=O)c1nn(CC(=O)N2C[C@H](F)C[C@H]2C(=O)Nc2cccc(-c3ccc4cn[nH]c4c3Cl)c2F)c2ccccc12 [Compound 47] | > 6.00 |
